Measured values published in patent US6187296A, “Lysine decarboxylase inhibitors for the prevention and treatment of periodontal disease” (priority 2000, dated 2001).

Columns and labels:
lysine decarboxylase [1] = settings: Mycoplasma dispar; cited from earlier work
lysine decarboxylase [2] = target: T1, lysine decarboxylase (Selenomonas ruminantium, UniProt O50657); settings: cited from earlier work
T1 construct: host or cells: Selenomonas ruminantium

lysine decarboxylase [3] = target: lysine decarboxylase (Eikenella corrodens, UniProt Q9Z4R7); assay: Cadaverine production by E. corrodens extract as a function of initial lysine concentration; assay type: biochemical; settings: 0.42 mM EACA
Protocol: FIGS. 4A and 4B are graphs showing cadaverine production as a function of initial lysine concentration in the presence and absence of […] ε-amino-n-caproic acid (EACA). […] Initial rate of cadaverine produced (from 0.3 μg E. corrodens extract protein/ml) graphed against the initial lysine concentration. A. Cadaverine produced after 20 min: Enzyme only: .circle-solid.-.circle-solid.; with 0.42 ImM EACA .smallcircle. . . . .smallcircle.. B. Enlarged inset, cadaverine produced after 16 h (limited substrate): Enzyme only .circle-solid.-.circle-solid.; with 0.42 mM EACA .smallcircle. . . . .smallcircle..
The results of FIG. 1 were obtained when 0.1 ml of E. corrodens extract (10 μg protein/ml), or plaque extract (100 μg protein/ml) was added to 0.5×10^5 HL60 cells or 2×10^5 HeLa cells in 0.5 ml growth medium in 48-well plates (Costar, Cambridge, Mass.). The cells were incubated for 96 h at 37° C. in 5% CO2 in air, examined visually and counted on a Coulter Counter (Coulter Electronics Hialeah, Fla.). […] The samples were incubated at 43° C. for 5.0 min, vortexed with 2.0 ml toluene for 20 sec, centrifuged at 2,000 rpm for 5 min and the absorbance of the toluene layer read at 340 nm. From a standard curve, the cadaverine produced was measured and subtracted from the amount of free lysine initially in the medium plus extract after 16 h or 40 h. […]

HL60 cells = assay type: cell-based; settings: FIG. 3; control 0.22 mM lysine; 0.72 mM lysine and/or 0.42 mM EACA
Protocol: Graphs show the percent growth inhibition after 96 h (2A) and the percent lysine remaining (2B) after 40 h incubation (obtained as described in legend to FIG. 1).

lysine decarboxylase [4] = target: T2, lysine decarboxylase (Escherichia coli, UniProt P0A9H3); settings: cited from earlier work
T2 construct: host or cells: Escherichia coli

lysine decarboxylase [5] = assay: Lysine decarboxylase activity in Mycoplasma dispar; assay type: biochemical; settings: half of the DL-form inhibiting values
lysine decarboxylase [6] = target: T1, lysine decarboxylase; assay: Lysine decarboxylase activity in Selenomonas ruminantium; assay type: biochemical; settings: half of the DL-form inhibiting values, read-out: Equivalent L inhibitory values

T1 sequence (O50657 whole entry): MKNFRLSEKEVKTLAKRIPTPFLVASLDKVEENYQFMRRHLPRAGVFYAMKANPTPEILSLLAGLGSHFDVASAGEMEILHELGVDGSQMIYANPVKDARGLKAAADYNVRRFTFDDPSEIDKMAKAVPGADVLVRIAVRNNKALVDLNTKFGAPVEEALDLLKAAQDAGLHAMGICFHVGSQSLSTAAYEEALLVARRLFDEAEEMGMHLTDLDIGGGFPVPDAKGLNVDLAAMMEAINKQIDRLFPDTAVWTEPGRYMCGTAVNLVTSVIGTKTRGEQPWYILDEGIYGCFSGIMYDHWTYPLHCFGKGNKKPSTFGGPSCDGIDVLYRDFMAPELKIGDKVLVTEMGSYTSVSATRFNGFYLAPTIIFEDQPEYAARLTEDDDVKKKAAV
Chain of lysine decarboxylase (Eikenella corrodens, UniProt Q9Z4R7) (Q9Z4R7 entry or part of it): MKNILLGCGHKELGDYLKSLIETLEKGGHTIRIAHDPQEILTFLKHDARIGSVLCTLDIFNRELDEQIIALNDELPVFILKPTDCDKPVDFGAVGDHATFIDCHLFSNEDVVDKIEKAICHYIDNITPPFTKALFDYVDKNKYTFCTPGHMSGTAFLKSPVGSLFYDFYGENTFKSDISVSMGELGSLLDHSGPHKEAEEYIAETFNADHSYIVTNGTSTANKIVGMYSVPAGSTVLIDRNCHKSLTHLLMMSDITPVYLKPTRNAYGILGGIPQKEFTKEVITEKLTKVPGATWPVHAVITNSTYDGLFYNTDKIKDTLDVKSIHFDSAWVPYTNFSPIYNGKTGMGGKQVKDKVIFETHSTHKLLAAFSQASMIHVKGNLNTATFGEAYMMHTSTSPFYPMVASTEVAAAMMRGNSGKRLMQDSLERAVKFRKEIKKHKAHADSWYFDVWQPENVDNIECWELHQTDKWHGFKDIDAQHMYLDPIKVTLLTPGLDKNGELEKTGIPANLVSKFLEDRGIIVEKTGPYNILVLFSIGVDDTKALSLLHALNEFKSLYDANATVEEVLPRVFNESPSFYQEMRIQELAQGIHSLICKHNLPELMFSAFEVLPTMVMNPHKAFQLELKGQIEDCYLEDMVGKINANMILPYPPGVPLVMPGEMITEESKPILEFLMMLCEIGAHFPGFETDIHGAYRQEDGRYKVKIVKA
T2 sequence (P0A9H3 whole entry): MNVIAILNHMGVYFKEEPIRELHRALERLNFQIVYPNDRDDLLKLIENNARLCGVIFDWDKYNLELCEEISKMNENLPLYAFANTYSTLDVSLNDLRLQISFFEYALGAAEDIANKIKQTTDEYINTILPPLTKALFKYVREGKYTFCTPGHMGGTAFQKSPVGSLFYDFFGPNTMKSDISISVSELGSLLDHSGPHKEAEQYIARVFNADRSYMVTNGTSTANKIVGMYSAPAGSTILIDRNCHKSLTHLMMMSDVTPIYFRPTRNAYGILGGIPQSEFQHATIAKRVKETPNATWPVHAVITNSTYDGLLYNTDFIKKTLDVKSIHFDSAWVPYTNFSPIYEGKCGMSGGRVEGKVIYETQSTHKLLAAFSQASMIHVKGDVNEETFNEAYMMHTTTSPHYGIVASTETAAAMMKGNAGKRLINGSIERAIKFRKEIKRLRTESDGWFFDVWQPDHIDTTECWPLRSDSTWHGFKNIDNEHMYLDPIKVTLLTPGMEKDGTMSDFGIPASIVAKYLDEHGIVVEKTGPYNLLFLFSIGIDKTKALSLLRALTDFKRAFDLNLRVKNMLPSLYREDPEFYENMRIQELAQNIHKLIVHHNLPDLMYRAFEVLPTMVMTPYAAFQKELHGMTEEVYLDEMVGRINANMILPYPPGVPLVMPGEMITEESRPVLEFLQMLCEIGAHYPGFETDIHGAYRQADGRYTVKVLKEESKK

Structure (SMILES) | Effect on lysine decarboxylase activity (lysine decarboxylase [1]) | Effect on lysine decarboxylase activity (lysine decarboxylase [2]) | Effect on growth inhibiting activity of E. corrodens extract (HL60 cells) | other results
NCCCC(N)(C(=O)O)C(F)F (racemic) [DFMO] | no effect | no effect |  | 
N=C(N)NCCCC(N)(C(=O)O)C(F)F (racemic) [DFMR] | no effect | no effect |  | 
NCCCCCC(=O)O [EACA, ε-amino-n-caproic acid] |  |  | increased the growth inhibition | Effect on the E. corrodens enzyme at high lysine concentrations (lysine decarboxylase [3]; high lysine concentrations): inhibits the enzyme; Effect on the E. corrodens enzyme at low lysine concentrations (lysine decarboxylase [3]; lysine 0.22-0.72 mM as in growth media): activates the enzyme; Effect on lysine decarboxylase from E. coli (lysine decarboxylase [4]): inhibits
NCCCC[C@](N)(C(=O)O)C(F)F [L-DFML] |  |  |  | Equivalent L inhibitory values (lysine decarboxylase [5]): 0.05 to 0.50 mM; IC100 (lysine decarboxylase [6]): 50 to 500 µM
NCCCC[C@H](N)C(=O)O [lysine] |  |  | decreased the growth inhibiting activity | 
